Data taken from patent US20220348876A1, “METABOLISM GUIDES DEFINITIVE LINEAGE SPECIFICATION DURING ENDOTHELIAL TO HEMATOPOIETIC TRANSITION” (Amniotics AB, priority 2019, published 2022).

Key:
LT-HSCs = assay: CFU assay of LT-HSCs sorted from E14.5 fetal livers of treated embryos; assay type: in vivo, mice; conditions: DCA-treated embryos vs control and UK5099
Description: (§1) Pregnant female C57Bl/6xB6.SJL mice were injected intraperitoneally at E9.5 with UK5099 (4 mg/kg) or DCA (200 mg/kg) or PBS (control). Embryos were harvested at E14.5 and individually weighed and processed. Fetal livers were dissected and homogenized in 800 μL ice cold PBS supplemented with 2% fetal bovine serum (FBS) and FL cells were washed in PBS with 2% FBS. For the differentiated lineage panel, cells were stained with B220 and CD19 (B-cell markers)-PE, CD3e-APC, Ter119-PeCy7 and CD71-FITC and analyzed on a BD FACSARIA III. For the HSC panel, samples were first treated with ammonium chloride solution (STEMCELL Technologies, France) to lyse red blood cells, washed twice in ice cold PBS with 2% FBS, stained with CD3e, B220, Ter119, Gr1 (Lineage)-PeCy5, c-Kit-Efluor780, Sca1-BV421, CD48-FITC, CD150-BV605 and 7-AAD (for dead cell exclusion) and analyzed on a BD FACSARIA III. […] For plating of CFU assays, 100 LT-HSCs were sorted (gating strategy shown in FIG. 13, d) and resuspended in 3.0 mL Methocult M3434 (STEMCELL Technologies, France). Each mixture was divided onto 2 wells of a non-tissue culture treated 6-well plate. Following a 14-day incubation in a humidified incubator at 37° C., 5% CO2, 20% O2, colonies were morphologically distinguished and scored.

NSG mice = NSG mice transplantation of DCA-treated HE cells; assay type: in vivo; conditions: week 8; text does not separate DCA from control
Description: Sorted human HE cells (350,000) were mixed with OP9-DL1 stroma (60,000) and subcultured for 3 days with or without DCA (3 mM) on Matrigel (16 μg/cm^2, Corning)-coated 12-well plates in HE medium^30. Between 100,000-150,000 cells from control or DCA samples were transplanted into sub-lethally irradiated (300 cGy) 8-week-old female NOD/Cg-Prkdc^scid Il2rg^tm1Wjl/SzJ mice (NSG, The Jackson Laboratory) together with 20,000 whole bone marrow support cells from C57Bl/6.SJL mice (CD45.1+/CD45.2+, in house breeding). Cells were transplanted in single cell solution in 250 μL PBS with 2% FBS through intravenous tail vein injection. Drinking water of transplanted NSG mice was supplemented with ciprofloxacin (125 mg/L, HEXAL) for 3 weeks after transplantation to prevent infection. Mice were housed in a controlled environment with 12-hour light-dark cycles with chow and water provided ad libitum. Experiments and animal care were performed in accordance with the Lund University Animal Ethical Committee.
Peripheral blood (PB) was collected from the tail vein into EDTA-coated microvette tubes (Sarstedt, Cat #20.1341.100). […]
Bone marrow was analyzed at the 12-week transplantation endpoint. […]

C57Bl/6xB6.SJL mice = assay: In vivo compound injection of pregnant mice, fetal liver analysis at E14.5
Description: as §1

[1] = system: mitochondrial pyruvate carrier (MPC); conditions: read-out: IC50 of pyruvate-dependent O2 consumption; cited from earlier work
HE cells = assay: Lymphoid differentiation assay on OP9-DL1 stroma; assay type: cell-based, human; conditions: 3-day subculture with UK5099 10 μM or DCA 3 mM, then 35-day co-culture, vs untreated
Description: Subculture day 3 HE cells cultured in the presence of UK5099 (10 μM), DCA (3 mM), or in glutamine-free medium with DMK (1.75 mM), nucleosides (1×) or NEAAs (1×), as indicated, were collected after a 2-minute incubation at 37° C. with StemPro Accutase Cell Dissociation Reagent and seeded onto 80% confluent OP9-DL1 stroma. Cells were cultured in OP9 medium with SCF (10 ng/ml), FLT3-L (10 ng/ml), IL-2 (5 ng/ml), IL-7 (5 ng/ml, first 15 days only) and IL-15 (10 ng/ml) with passaging onto new OP9-DL1 stroma every week, as described previously (Renoux, V. M. et al. Immunity 43, 394-407 (2015)). At day 35 of co-culture, cells were analyzed on a BD LSRFortessa.

| Compound | decrease in the BFU-E to CFU-GM ratio (LT-HSCs) [%] | engraftment: human CD45+ cells in the peripheral blood (NSG mice) | effect on in vivo EHT and hematopoiesis (C57Bl/6xB6.SJL mice; UK5099 4 mg/kg i.p. at E9.5) | frequency of phenotypic long-term HSCs (LT-HSCs) (C57Bl/6xB6.SJL mice; fetal liver E14.5, i.p. at E9.5, UK5099 4 mg/kg or DCA 200 mg/kg) | IC50 [1] [nM] | NK cell differentiation (CD45+CD56+) (HE cells) |
| --- | --- | --- | --- | --- | --- | --- |
| O=C(O)C(Cl)Cl [DCA, dichloroacetate] | 80 | around 1% |  |  |  |  |
| N#C/C(=C\c1cn(-c2ccccc2)c2ccccc12)C(=O)O [UK5099] |  |  | No significant effect | not affected | […] | impaired NK cell formation |
